In US11986522B2, “Immunotherapeutic composition and uses thereof” (ARAVAX PTY LTD, priority 2013, dated 2024):
Entries after “also recorded” stand apart in the source; their conditions may differ. No end group written: not given here.

B1: Ara h 2: major peanut allergen, glycoprotein of the conglutin seed storage family (protein, listed as Arachis hypogaea)
chain: LTILVALALFLLAAHASARQQWELQGDRRCQSQLERANLRPCEQHLMQKIQRDEDSYERDPYSPSQDPYSPSPYDRRGAGSSQHQERCCNELNEFENNQRCMCEALQQIMENQSDRLQGRQQEQQFKRELRNLPQQCGLRAPQRCDLDVESGGRDRY

Experiments:
HLA-DR, HLA-DQ, HLA-DP = test: HLA class II blocking assays (anti-HLA mAb, TCL proliferation); assay type: cell-based, human; settings: for antibody that blocked T cell recognition of the epitope: Ara h 2 epitopes
Method: Materials and Methods Subjects: Peanut-allergic adult subjects were recruited from The Alfred Allergy Clinic, Melbourne, Australia. […] Some subjects were genotyped (HLA-DRB1, -DQB1 and -DPB1, exon 2) by the Victorian Transplantation and Immunogenetics Service. The study was approved by The Alfred and Monash University Ethics Committees and informed written consent obtained from each subject. Antigens: Crude peanut extract (CPE) was prepared from commercial unsalted, dry-roasted peanuts as described elsewhere, (de Leon et al. Clin Exp Allergy. 2003; 33(9):1273-80) dialyzed against phosphate-buffered saline (PBS) and filter-sterilized (0.2 μm). Natural Ara h 1 and Ara h 2 were enriched from CPE based on published methodology. (de Jong E C et al. Clin Exp Allergy. 1998; 28(6):743-51) Briefly, CPE was buffer exchanged into 20 mM TRIS-bis-propane (TBP), pH 7.2, using Vivaspin columns (Sartorius Stedim Biotech S.A., Aubagne, France) and applied onto a 5 mL Mono-Q 10/10 column (Pharmacia FPLC System, St Albans, UK) equilibrated with TBP. After washing with TBP, a linear gradient of 30 mL 0-1 M NaCl/TBP was applied to elute bound proteins (1 mL/min). Fractions, 0.5 mL, were analyzed by SDS-PAGE and those containing Ara h 1 or Ara h 2 with minimal other proteins pooled and dialyzed against PBS. Endotoxin contents were 1.7, 4.0 and 78.0 EU/mg for CPE, Ara h 1 and Ara h 2 respectively (Endpoint Chromogenic LAL assay, Lonza, Walkersville, USA). Peptides (Mimotopes, Victoria, Australia and GenScript USA Inc, New Jersey, USA) were reconstituted at 1-4 mg/ml in 10% dimethyl sulfoxide/PBS (20-mers and truncated peptide sets) or PBS, 1-2% acetic acid or 0.1M ammonium bicarbonate buffers as specified (custom-synthesized core epitope peptides). All antigens were confirmed to be neither mitogenic nor toxic as described (Eusebius N P et al., Int Arch Allergy Immunol. 2002; 127(3):234-44). Generation of Ara h 1 and Ara h 2-specific CD4+ T-cell lines (TCL): Ara h 1 or Ara h 2-specific oligoclonal TCL were generated from peripheral blood mononuclear cells (PBMC) of peanut-allergic subjects using 5,6-carboxyfluorescein diacetate succinimidylester (CFSE)-based methodology. (Mannering S I et al., J Immunol Methods. 2005; 298(1-2):83-92; Prickett S R, et al., J Allergy Clin Immunol. 2011; 127(3):608-15 el-5). Briefly, culturing was performed in RPMI-1640 containing 2 mM L-glutamine, 100 IU/mL penicillin-streptomycin and 5% human AB serum (Sigma-Aldrich, St Louis, USA) (cRPMI). PBMC were labelled with 0.1 μM CFSE (Molecular Probes, Eugene, USA) and cultured (2.5×10^6/mL) with cRPMI alone, CPE (100 μg/mL), Ara h 1 or Ara h 2 (10 μg/mL), Ara h 1 or Ara h 2 20-mer-peptide pools (10 μg/mL/peptide) or as a control, tetanus toxoid (TT; 10 LfU/mL; Statens Serum Institute, Copenhagen, Denmark) for 7 days at 37° C. After staining with CD4-PE and 7AAD (BD Pharmingen, San Diego, USA), CD4+CFSEdim7AAD-cells were sorted (10 cells/well) into 96-U-well plates containing irradiated allogeneic feeder-cells, anti-CD3 (OKT-3), rIL-2 (Cetus, Emeryville, USA) and Fungizone (Invitrogen, Carlsbad, USA) as described. Cells were fed with rIL-2 as required and after 10-14 days, transferred to 48-well plates and tested for proliferation to Ara h 1 or Ara h 2 (10 μg/mL). Ara h 1 or Ara h 2-positive TCL were expanded with anti-CD3 and rIL-2 in T25 culture flasks (BD, Franklin Lakes, USA) for 10-12 days then tested for specificity (proliferation) to overlapping 20-mer peptides spanning the respective sequence (10 μg/mL). Core epitope sequences were mapped within selected 20-mers using peptide sets truncated from the N- or C-terminus of the 20-mer as described (Prickett S R, et alc. J Allergy Clin Immunol. 2011; 127(3):608-15 el-5). T-cell assays:All culturing was performed in RPMI-1640 containing 2 mM L-glutamine, 100 IU/mL penicillin-streptomycin and 5% heat-inactivated human AB serum (Sigma-Aldrich, St Louis, USA) (cRPMI). […]

[1] = system: PBMC CD4+ T cells of peanut-allergic subjects; test: 7-day CFSE assay of peptide-induced CD4+ T-cell proliferation/activation within whole PBMC; assay type: cell-based, human; settings: screen of 25 new subjects
[2] = Peptide solubility in buffers; assay type: physicochemical
[3] = system: HLA-DRB1, -DQB1 and -DPB1; test: HLA-genotyping of subjects whose TCL recognise the epitopes; design: species or system human; settings: for HLA allele presenting the epitope / present in all recognising subjects: HLA-typed subjects; for HLA-binding degeneracy (presented by): no shared allele between responding subjects
specific IgE = settings: cited from earlier work
[4] = Table 4, dominant core T cell epitopes

Row | Molecule | HLA-restriction (HLA-DR, HLA-DQ, HLA-DP; [4]) | HLA-restriction (HLA-DR, HLA-DQ, HLA-DP; Table 7, 10 candidate peptides) | other results
1 | ALMLPHFNSKAMVIVVV [50 core] | HLA-DR | HLA-DR | –
2 | EFENNQRSMSEALQ [Peptide 23] | – | – | T cell responses compared with longer version containing an additional epitope [1]: Induced equivalent T cell
3 | GDVFIMPAAHPVAINASSE [Peptide 7, GDVFIMPAAHPVAINASSE] | – | – | solubility of the version without the added C-terminal ‘E’ [2]: insoluble except in toxic buffers; solubility in PBS, 0.1M NH4HCO3, or 1-2% acetic acid ([2]; redesigned new version for peptide 7): soluble; peptide 7 in Table 7)
4 | EFENNQRCMCEALQ [10/11 core] | HLA-DQ | – | HLA allele presenting the epitope / present in all recognising subjects [3]: DRB1*15:01; HLA-binding degeneracy (presented by) [3]: multiple HLA-DQB1 molecules
5 | FQNLQNHRIV (listed as Arachis hypogaea) [23 core] | HLA-DR | – | –
6 | KAMVIVVVNKG (KAMVIVVVNKGTGNLELVAVD; listed as Arachis hypogaea) [50/51 core] | HLA-DR | – | –
7 | ELNEFENNQRSMSEALQ [10 + 10/11 core] | – | HLA-DR; also recorded: or -DQ | –
8 | ELNEFENNQRCM [10 core] | HLA-DR | – | –
9 | RIVQIEAKPNTLV (listed as Arachis hypogaea) [24 core] | HLA-DR | – | –
10 | RELRNLPQQCGLRA [15 core] | – | – | antibody that blocked T cell recognition of the epitope (HLA-DR, HLA-DQ, HLA-DP): anti-HLA-DR; HLA-binding degeneracy (presented by) [3]: multiple HLA-DRB1 molecules
11 | WSTRSSENNEGVIVKVSKE [40 core] | HLA-DQ | HLA-DQ | –
12 | ANLRPSEQHLM [Peptide 21] | – | – | T cell responses compared with longer version containing an additional epitope [1]: Induced equivalent T cell
13 | NNFGKLFEVKPDKKNPQ [46 core] | HLA-DR | – | –
14 | NNFGKLFEVKPDKKNPQLQ (listed as Arachis hypogaea) [46 + 47 core] | – | HLA-DR | –
15 | GDVFIMPAAHPVAINASS (listed as Arachis hypogaea) [57 core] | HLA-DR; also recorded: HLA-DQ | HLA-DR; also recorded: HLA-DQ | –
16 | EVKPDKKNPQLQ (listed as Arachis hypogaea) [Peptide 15] | HLA-DR | – | T cell responses compared with longer version containing an additional epitope [1]: Induced equivalent T cell
17 | ANLRPCEQHLM [4/5 core] | HLA-DR; also recorded: HLA-DQ | – | antibody that blocked T cell recognition of the epitope (HLA-DR, HLA-DQ, HLA-DP): anti-HLA-DR; HLA-DR molecules presenting the epitope [3]: at least 2; HLA allele presenting the epitope / present in all recognising subjects [3]: HLA-DQB1*06:09; HLA-binding degeneracy (presented by) [3]: multiple HLA-DRB1 molecules
18 | SQLERANLRPCEQ [4 core] | HLA-DP | – | antibody that blocked T cell recognition of the epitope (HLA-DR, HLA-DQ, HLA-DP): anti-HLA-DP; HLA allele presenting the epitope / present in all recognising subjects [3]: DPB1*04:01
19 | VEIKEGALMLPHFNSKA (listed as Arachis hypogaea) [Peptide 4] | HLA-DQ | HLA-DQ | –
20 | KAMVIVVVNKGTGNLELVAV [51 ‘core’] | HLA-DR | HLA-DR | –
21 | FQNLQNHRIVQIEAKPNTLV (listed as Arachis hypogaea) [Peptide 1] | – | HLA-DR | –
22 | B1 | – | – | sera reactive with Ara h 2 (specific IgE; Burks et al, 1992): 6 out of 6; subjects with specific IgE to purified natural Ara h 2 (specific IgE; de Jong's group): approximately 78%; subjects possessing specific IgE to Ara h 2 (specific IgE; western blotting of crude peanut extract, Clarke): 71%; subjects possessing IgE towards recombinant form (specific IgE; western blotting, Kleber-Janke et al.): 85%
